The values that follow come from article PMC12068666, “Synthesis of thiazole-integrated pyrrolotriazinones: evaluations of cytotoxicity and effects on PI3K levels in cancer cells” (Turkish Journal of Chemistry, 2025).

Structures are written as SMILES. Entries after “also recorded” stand apart in the source; their conditions may differ. Some results are limits rather than exact numbers.

For one test, the target named is PI3K enzyme. The note with it: cited from earlier work.
Another test concerns A549 cells. Description: MTT assay, antiproliferative activity, A549. Format: cell-based, human. The note with it: for IC50: Homo sapiens, A549, MTT, 24 h treatment, mean ± SD; for Selectivity Index (SI) A549: IC50 of healthy cells (NIH/3T3)/IC50 of cancer cells. On the procedure: (§1) MCF-7 (human ER + breast cancer, HTB-22, USA), A549 (human nonsmall cell lung cancer, ATTC CRM-CCL-185, USA), HepG2 (human liver cancer, ATTC HB-8065, USA), and NIH/3T3 (mouse embryonic fibroblast, ATCC, CRL-1658, USA) cells were maintained in DMEM supplemented with 10% fetal bovine serum and 1% penicillin/streptomycin. The cells were maintained under appropriate conditions (37 °C, 5% CO2).
(§2) The antiproliferative activity of the newly synthesized compounds was measured using the MTT assay as described in a previous study. Briefly, cells were seeded at a density of 6 × 10^3 cells/well and incubated for 24 h in a 37 °C humidified incubator with 5% CO2. Afterwards, the cells were treated with increasing concentrations (1, 2.5, 5, 10, 25, 50, 75, and 100 μM) of compounds and incubated for another 24 h. Moreover, some cells were incubated with doxorubicin (1, 5, 10, 25, and 50 μM) for comparison, while other cells treated only with 1% DMSO was used as the solvent control. After incubation, 20 μL of MTT solution (5 mg/mL in PBS) was added to each well, and the plate was incubated for 4 h under the same conditions. Following this period, the medium was discarded and replaced with DMSO. The absorbance of dissolved formazan crystals was measured using a multiplate reader. The IC50 value and the selectivity index of each compound were calculated as previously described.
(§3) The antiproliferative effect of all newly synthesized thiazole-integrated pyrrolotriazinone derivatives were assessed against cancer cell lines (MCF-7, A549, and HepG2) as well as a healthy cell line (NIH/3T3) using the MTT assay. The IC50 values were determined through the nonlinear regression algorithm for log (inhibitor) versus normalized response-variable slope, as implemented in GraphPad [Y = 100/(1 + 10^X−LogIC50), where X represents the logarithm of the inhibitor concentration and Y denotes the response]. Additionally, Selectivity Indices (SI: IC50 of healthy cells/IC50 of cancer cells) were calculated.
In general terms: Tetrazolium dyes change colour on reduction, which living cells bring about.

Another test has as its system MCF-7 cells. In words: MTT assay, antiproliferative activity, MCF-7. In kind it is cell-based, human. Particulars: for IC50: Homo sapiens, MCF7, MTT, 24 h treatment, mean ± SD; for Selectivity Index (SI) MCF-7: IC50 of healthy cells (NIH/3T3)/IC50 of cancer cells. On the procedure: as §1, §2, §3
Test [1] has as its system PI3K. In words: PI3K protein levels by ELISA in HepG2 cells. Format: cell-based, human. The note with it: IC50 concentration, 24 h, compared to 1% DMSO control. As to the method:
(§4) The protein levels of PI3K in MCF-7 and HepG2 cells were assessed using enzyme-linked immunosorbent assay (ELISA) kits. […] After the incubation period, the medium was collected, and PI3K protein levels were measured using ELISA kits according to the manufacturer’s instructions (Cat no: ELK9879, ELK Biotechnology, Denver, USA).

Test [2] has as its system PI3K. Description: PI3K protein levels by ELISA in MCF-7 cells. Format: cell-based, human. The note with it: IC50 concentration, 24 h, compared to 1% DMSO control. As to the method:
as §4

In another test the test system is NIH/3T3 cells. In words: MTT assay, healthy cell line NIH/3T3. Format: cell-based. The note with it: Mus musculus, NIH3T3, 24 h treatment, mean ± SD. On the procedure: as §1, §2, §3
In the next test the test system is HepG2 cells. Description: MTT assay, antiproliferative activity, HepG2. In kind it is cell-based, human. Particulars: for IC50: Homo sapiens, HepG2, MTT, 24 h treatment, mean ± SD; for Selectivity Index (SI) HepG2: IC50 of healthy cells (NIH/3T3)/IC50 of cancer cells. As to the method:
as §1, §2, §3

In general, IC50 refers to the concentration needed to halve the response being measured.

Consider `Cc1ccccc1-n1c(Cn2cnc3c(N)ncnc32)nn2ccc(C)c2c1=O` [Compound 5], for which, at PI3K enzyme, the IC50 is 0.11 µM.

As for `Cc1ccn2nc(C(C)n3cnc4c(N)ncnc43)n(-c3ccccc3)c(=O)c12` (stereo not drawn) [Compound 6], the IC50 on PI3K enzyme is 0.075 µM.

Consider `O=c1n(-c2nc(-c3ccc(Cl)cc3)cs2)ncc2cccn12` [Compound 21, 3-(4-(4-chlorophenyl)thiazol-2-yl)pyrrolo[1,2-d][1,2,4]triazin-4(3H)-one], for which, in the test on A549 cells, the midpoint of inhibition, the IC50, lay at 39.2 ± 1.41 µM and the “Selectivity Index (SI) A549” value turned out to be 2.72. In the test with MCF-7 cells, the IC50 is 11.2 ± 0.12 µM and the “Selectivity Index (SI) MCF-7” value came to 9.51. The “PI3K protein levels in HepG2 cells” value with PI3K [1] is on record as “did not alter PI3K levels”. In addition, the “PI3K protein levels in MCF-7 cells” value in the test with PI3K [2] is “significantly reduced; also recorded: did reduce PI3K levels”. This compound also had a half-maximal inhibitory concentration (IC50) in the test on NIH/3T3 cells of over 100 µM. Moreover, in the test on HepG2 cells, 10.2 ± 0.95 µM corresponded to half-maximal inhibition (IC50) and the “Selectivity Index (SI) HepG2” value is 10.40.

For `O=c1n(-c2nc(-c3ccc(Cl)c(Cl)c3)cs2)ncc2cccn12` [Compound 25, 3-(4-(3,4-dichlorophenyl)thiazol-2-yl)pyrrolo[1,2-d][1,2,4]triazin-4(3H)-one], in the test with A549 cells, half-maximal inhibition (IC50) was put at 38.7 ± 0.4 µM and the “Selectivity Index (SI) A549” value stood at 2.84. In the test on MCF-7 cells, 8.1 ± 0.17 µM corresponded to half-maximal inhibition (IC50) and the “Selectivity Index (SI) MCF-7” value turned out to be 13.60. In the test with PI3K [1], the “PI3K protein levels in HepG2 cells” value is “markedly diminished; also recorded: significant reduction in PI3K protein levels”. For the same compound, the “PI3K protein levels in MCF-7 cells” value in the test with PI3K [2] is on record as “significantly reduced; also recorded: significant reduction in PI3K protein levels”. In the test with NIH/3T3 cells, this compound displayed an IC50 of over 100 µM. Also, in the test with HepG2 cells, 7.21 µM corresponded to half-maximal inhibition (IC50) and the “Selectivity Index (SI) HepG2” value came out at 15.20.

`O=c1n(-c2nc(-c3ccc(F)c(Cl)c3)cs2)ncc2cccn12` [Compound 26, 3-(4-(3-chloro-4-fluorophenyl)thiazol-2-yl)pyrrolo[1,2-d][1,2,4]triazin-4(3H)-one]: the IC50 in the test on A549 cells was 25.2 ± 0.39 µM; with MCF-7 cells, 14.2 ± 0.42 µM; in the test with NIH/3T3 cells it was over 100 µM; in the test with HepG2 cells it was 15.1 ± 0.61 µM. In the test with A549 cells, the “Selectivity Index (SI) A549” value is listed as 5.53. In the test with PI3K [2], the “PI3K protein levels in MCF-7 cells” value was “significantly reduced”. In addition, the “Selectivity Index (SI) HepG2” value in the test with HepG2 cells is given as 9.22.

In the case of `O=c1n(-c2nc(-c3ccc(Cl)cc3Cl)cs2)ncc2cccn12` [Compound 27, 3-(4-(2,4-dichlorophenyl)thiazol-2-yl)pyrrolo[1,2-d][1,2,4]triazin-4(3H)-one], the IC50 in the test with A549 cells is 37.2 ± 1.15 µM; in the test with MCF-7 cells it was 9.23 ± 1.09 µM; in the test with NIH/3T3 cells, over 100 µM; in the test with HepG2 cells, 6.18 ± 0.63 µM. For the same compound, the “Selectivity Index (SI) A549” value in the test on A549 cells is reported as 2.83. Also, the “Selectivity Index (SI) MCF-7” value in the test with MCF-7 cells was 10.30. Further, the “PI3K protein levels in HepG2 cells” value in the test with PI3K [1] is recorded as “markedly diminished; also recorded: reduced PI3K levels; also recorded: significant reduction in PI3K protein levels”. The “PI3K protein levels in MCF-7 cells” value with PI3K [2] is “significantly reduced; also recorded: reduced PI3K levels; also recorded: significant reduction in PI3K protein levels”.

As to `Cc1ccccc1-n1c(Cn2cnc3c(N)ncnc32)nc2cccc(C)c2c1=O` [IC87114], at PI3K enzyme, the IC50 was 0.13 µM.
